These are literature values, as cited in patent publication US20110052648A1, “ORAL MODIFIED-RELEASE FORMULATIONS CONTAINING THIAZEPINES” (priority 2008, published 2011).

On to `OCCOCCN1CCN(C2=Nc3ccccc3Sc3ccccc32)CC1` [Quetiapine, 11-[4-[2-(2-hydroxyethoxy)ethyl]-1-piperazinyl]dibenzo[b,f][1,4]-thiazepine], for which the solubility in water result is “moderately soluble”.
